Laboratory results reported in US9549965B2, “Pharmaceutical composition for treating a microbial infection” (HELPERBY THERAPEUTICS LIMITED, priority 2010, dated 2017).
Where “and” joins values, the source holds several entries; their conditions need not be identical. Equal values may be shown once. Where a name gives a salt, the structure may show the parent alone. Read-outs that look alike come from different tables or passages of the source.

How the values were obtained:
stationary phase E. coli = assay: Bactericidal activity against stationary phase E. coli (CFU counts); type: cell-based, Escherichia coli; conditions: Escherichia coli, read-out: Log kill; for log reduction at 6.25 µg/mL: 6.25 μg/ml; for log reduction at 12.5 µg/mL: 12.50 μg/ml; for log reduction at 25 µg/mL: 25.00 μg/ml
Protocol: (§1) Escherichia coli K12; Gram negative; Reference strain.
(§2) Bacteria were grown in 10 ml of nutrient broth (No. 2 (Oxoid)) overnight at 37° C., with continuous shaking at 120 rpm. The overnight cultures were diluted (1000×) in 100 ml of growth medium and then incubated without shaking for 10 days. Viability of the bacteria was estimated by colony forming unit (CFU) counts at 2 hour intervals at the first 24 hours and at 12-24 hours afterwards. From serial 10-fold dilutions of the experimental cultures, 100 μl samples were added to triplicate plates of nutrient agar plates (Oxoid) and blood agar plates (Oxoid). Colony forming units (CFU) were counted after incubation of the plates at 37° C. for 24 hours.
(§3) Cultures incubated for more than 24 hours are in the stationary phase. For drug screening, 5-6 day old stationary phase cultures were used.
(§4) Different concentrations of each test compound were incubated with stationary phase cultures (5-6 day cultures) in 96 well plates for 24 or 48 hours. Bactericidal activity was then determined by taking CFU counts of the resulting cultures, as described above.

log phase E. coli [1] = assay: MIC against log phase E. coli; type: cell-based, Escherichia coli
Protocol: as §1
(§5) The above-described overnight cultures were diluted (1000×) with iso-sensitest broth. The cultures were then incubated at 37° C. with shaking for 1-2 hours to reach log CFU 6, which served as log phase cultures.
(§6) The bactericidal activity of the drugs against log phase cultures were determined by minimal inhibitory concentration (MIC) of the drugs, which is defined as the lowest concentration which inhibits visible growth. Different concentrations of each test compound were incubated with the log-phase cultures in 96 well plates for 24 hours. Bactericidal activity was then examined by taking a spectrophotometer reading (using a plate reader) at 405 nm.

[2] = tested on: stationary phase S. aureus; assay: Bactericidal activity against stationary phase S. aureus (CFU counts); type: cell-based, Staphylococcus aureus; conditions: for log reduction at 6.25 µg/mL / log reduction at 12.5 µg/mL / log reduction at 25 µg/mL: Staphylococcus aureus, read-out: Log Kill
Protocol: Staphylococcus aureus (Oxford strain); Gram positive; Reference strain.
as §2, §3, §4

[3] = tested on: NDM-1 Klebsiella pneumoniae; assay: Chequerboard analysis with colistin against NDM-1 Klebsiella pneumoniae; type: cell-based
persistent E. coli = assay: Bactericidal activity against persistent E. coli selected by gentamicin; type: cell-based, Escherichia coli
Protocol: as §1
An antibiotic (gentamicin) was added to 5-6 day stationary-phase cultures to the final concentration of 50 to 100 μg/ml for 24 hours. After 24 hours of antibiotic treatment, the cells are washed 3 times with phosphate buffered saline (PBS), and then resuspended in PBS. The surviving bacterial cells are used as persisters. Viability is estimated by CFU counts. The persisters were then used in measurements of bactericidal activity for test compounds.
Different concentrations of each test compound were incubated with the (persister) cell suspension in 96 well plates for various periods of time (24 and 48 hours). Bactericidal activity was then determined by taking CFU counts of the resulting cultures, as described above.

log phase E. coli [4] = assay: Chequerboard analysis with polymyxin E against log phase E. coli; type: cell-based, Escherichia coli
Protocol: as §1, §5, §6

[5] = Escherichia coli, read-out: MIC

What does the source list for `CCN(CC)CCCC(C)Nc1c2ccc(Cl)cc2nc2ccc(OC)cc12` (centres unmarked) [Quinacrine hydrochloride]?
log reduction at 6.25 µg/mL (stationary phase E. coli): 1.27; log reduction at 12.5 µg/mL (stationary phase E. coli): 2.14; log reduction at 25 µg/mL (stationary phase E. coli): 6.14; MIC (log phase E. coli [1]; [5]): > 50 µg/mL

Which results are given for `Clc1ccc(C(Cn2ccnc2)OCc2ccsc2Cl)c(Cl)c1` (centres unmarked) [Tioconazole]?
log reduction at 6.25 µg/mL ([2]; 6.25 μg/ml): 0; log reduction at 12.5 µg/mL ([2]; 12.5 μg/ml): 6.15; log reduction at 25 µg/mL ([2]; 25 μg/ml): 6.15

With `CN(C)CCOc1ccc(/C(=C(/CCCl)c2ccccc2)c2ccccc2)cc1` [Toremifene citrate] as the compound, how does the log reduction at 6.25 µg/mL ([2]; 6.25 μg/ml) read?
The log reduction at 6.25 µg/mL was 6.15.

What about the log reduction at 12.5 µg/mL ([2]; 12.5 μg/ml) of the same compound?
Its log reduction at 12.5 µg/mL is 6.15.

And the log reduction at 25 µg/mL ([2]; 25 μg/ml)?
Its log reduction at 25 µg/mL is 6.15.

For `CN1CCN(CCCN2c3ccccc3Sc3ccc(C(F)(F)F)cc32)CC1` [Trifluoperazine hydrochloride], which log reduction at 6.25 µg/mL ([2]; 6.25 μg/ml) is on record?
Its log reduction at 6.25 µg/mL is 0.

What about the log reduction at 12.5 µg/mL ([2]; 12.5 μg/ml) of the same compound?
The log reduction at 12.5 µg/mL was 2.22.

What about the log reduction at 25 µg/mL ([2]; 25 μg/ml) of the same compound?
Its log reduction at 25 µg/mL is 6.03.

And the log reduction at 6.25 µg/mL (stationary phase E. coli)?
The log reduction at 6.25 µg/mL was -0.12.

And the log reduction at 12.5 µg/mL (stationary phase E. coli)?
Its log reduction at 12.5 µg/mL is 6.14.

What about the log reduction at 25 µg/mL (stationary phase E. coli) of the same compound?
Its log reduction at 25 µg/mL is 6.14.

And the MIC (log phase E. coli [1]; [5])?
Its MIC is 20 µg/mL.

And the spectrophotometer reading ([3]; trifluoperazine hydrochloride 0.25 mg/L alone)?
The spectrophotometer reading was 0.96.

What about the spectrophotometer reading ([3]; trifluoperazine hydrochloride 0.5 mg/L alone) of the same compound?
Its spectrophotometer reading is 0.95.

What about the spectrophotometer reading ([3]; trifluoperazine hydrochloride 1 mg/L alone) of the same compound?
The spectrophotometer reading was 0.94.

What about the spectrophotometer reading ([3]; trifluoperazine hydrochloride 2 mg/L alone) of the same compound?
The spectrophotometer reading was 0.96.

What about the spectrophotometer reading ([3]; trifluoperazine hydrochloride 4 mg/L alone) of the same compound?
The spectrophotometer reading was 0.95.

What about the spectrophotometer reading ([3]; trifluoperazine hydrochloride 8 mg/L alone) of the same compound?
Its spectrophotometer reading is 0.97.

And the spectrophotometer reading ([3]; trifluoperazine hydrochloride 16 mg/L alone)?
The spectrophotometer reading was 0.98.

And the spectrophotometer reading ([3]; trifluoperazine hydrochloride 32 mg/L alone)?
Its spectrophotometer reading is 0.95.

And the spectrophotometer reading ([3]; trifluoperazine hydrochloride 64 mg/L alone)?
Its spectrophotometer reading is 0.77.

What about the spectrophotometer reading ([3]; trifluoperazine hydrochloride 128 mg/L alone) of the same compound?
Its spectrophotometer reading is 0.87.

And the spectrophotometer reading ([3]; trifluoperazine hydrochloride 256 mg/L alone)?
The spectrophotometer reading was 1.33.

What does the source list for Bithionate sodium?
Log Kill ([2]; 6.25 μg/ml): 0.01; Log Kill ([2]; 12.5 μg/ml): 6.15; Log Kill ([2]; 25 μg/ml): 6.15; MIC (log phase E. coli [1]): 5 µg/mL; Log Kill (persistent E. coli; 6.25 μg/ml): 0.01; Log Kill (persistent E. coli; 12.5 μg/ml): 0.03; Log Kill (persistent E. coli; 25 μg/ml): 6.21

What does the source list for Polymyxin E (Colistin)?
spectrophotometer reading (log phase E. coli [4]; polymyxin E 0.0019 μg/ml alone): 1.53; spectrophotometer reading (log phase E. coli [4]; polymyxin E 0.0039 μg/ml alone): 1.55; spectrophotometer reading (log phase E. coli [4]; polymyxin E 0.0078 μg/ml alone): 1.55; spectrophotometer reading (log phase E. coli [4]; polymyxin E 0.015625 μg/ml alone): 1.53; spectrophotometer reading (log phase E. coli [4]; polymyxin E 0.03125 μg/ml alone): 1.42; spectrophotometer reading (log phase E. coli [4]; polymyxin E 0.0625 μg/ml alone): 1.52; spectrophotometer reading (log phase E. coli [4]; polymyxin E 0.125 μg/ml alone): 1.48; spectrophotometer reading (log phase E. coli [4]; polymyxin E 0.25 μg/ml alone): 1.25; spectrophotometer reading (log phase E. coli [4]; polymyxin E 0.5 μg/ml alone): 0.49; spectrophotometer reading (log phase E. coli [4]; polymyxin E 1 μg/ml alone): 0.49; spectrophotometer reading (log phase E. coli [4]; polymyxin E 2 μg/ml alone): 0.50; spectrophotometer reading ([3]; colistin 0.5 mg/L alone, Table 6): 1.08; spectrophotometer reading ([3]; colistin 0.5 mg/L alone, Table 7): 0.98; spectrophotometer reading ([3]; colistin 0.5 mg/L alone, Table 8): 0.94; spectrophotometer reading ([3]; colistin 0.5 mg/L alone, Table 9): 1.12; spectrophotometer reading ([3]; colistin 0.5 mg/L alone, Table 10): 1.14; spectrophotometer reading ([3]; colistin 0.5 mg/L alone, Table 11): 0.96; spectrophotometer reading ([3]; colistin 1 mg/L alone, Table 6): 1.03; spectrophotometer reading ([3]; colistin 1 mg/L alone, Table 7): 1.02; spectrophotometer reading ([3]; colistin 1 mg/L alone, Table 8): 0.94; spectrophotometer reading ([3]; colistin 1 mg/L alone, Table 9): 1.13; spectrophotometer reading ([3]; colistin 1 mg/L alone, Table 10): 1.12; spectrophotometer reading ([3]; colistin 1 mg/L alone, Table 11): 0.93; spectrophotometer reading ([3]; colistin 2 mg/L alone, Table 6): 1.05; spectrophotometer reading ([3]; colistin 2 mg/L alone, Table 7): 0.95; spectrophotometer reading ([3]; colistin 2 mg/L alone, Table 8): 0.87; spectrophotometer reading ([3]; colistin 2 mg/L alone, Table 9): 1.07; spectrophotometer reading ([3]; colistin 2 mg/L alone, Table 10): 1.09; spectrophotometer reading ([3]; colistin 2 mg/L alone, Table 11): 0.91; spectrophotometer reading ([3]; colistin 4 mg/L alone, Table 6): 0.34; spectrophotometer reading ([3]; colistin 4 mg/L alone, Table 7): 0.87; spectrophotometer reading ([3]; colistin 4 mg/L alone, Table 8): 0.54; spectrophotometer reading ([3]; colistin 4 mg/L alone, Table 9): 0.80; spectrophotometer reading ([3]; colistin 4 mg/L alone, Table 10): 0.89; spectrophotometer reading ([3]; colistin 4 mg/L alone, Table 11): 0.90; spectrophotometer reading ([3]; colistin 8 mg/L alone, Table 6): 0.82; spectrophotometer reading ([3]; colistin 8 mg/L alone, Table 7): 0.44; spectrophotometer reading ([3]; colistin 8 mg/L alone, Table 8): 0.57; spectrophotometer reading ([3]; colistin 8 mg/L alone, Table 9): 0.68; spectrophotometer reading ([3]; colistin 8 mg/L alone, Table 10): 0.63; spectrophotometer reading ([3]; colistin 8 mg/L alone, Table 11): 0.53; spectrophotometer reading ([3]; colistin 16 mg/L alone, Table 6): 0.78; spectrophotometer reading ([3]; colistin 16 mg/L alone, Table 7): 0.53; spectrophotometer reading ([3]; colistin 16 mg/L alone, Table 8): 0.39; spectrophotometer reading ([3]; colistin 16 mg/L alone, Table 9): 0.40; spectrophotometer reading ([3]; colistin 16 mg/L alone, Table 10): 0.69; spectrophotometer reading ([3]; colistin 16 mg/L alone, Table 11): 0.48; spectrophotometer reading ([3]; colistin 32 mg/L alone, Table 6): 0.33; spectrophotometer reading ([3]; colistin 32 mg/L alone, Table 7): 0.36; spectrophotometer reading ([3]; colistin 32 mg/L alone, Table 8): 0.41; spectrophotometer reading ([3]; colistin 32 mg/L alone, Table 9): 0.39; spectrophotometer reading ([3]; colistin 32 mg/L alone, Table 10): 0.40; spectrophotometer reading ([3]; colistin 32 mg/L alone, Table 11): 0.41; Colistin MIC ([3]; colistin alone): 32 µg/mL and 16 µg/mL; Colistin MIC ([3]; combined with 32 mg/L of suloctidil): 1 µg/mL; Colistin MIC ([3]; combined with 64 mg/L of mefloquine): 0.5 µg/mL

With Vitamin B12 as the compound, how does the MIC (log phase E. coli [1]) read?
The MIC was “— (— signifies MIC higher than 50 μg/ml)”.

What about the “Log Kill” value (persistent E. coli; 6.25 μg/ml) of the same compound?
Its value is 0.03.

What about the “Log Kill” value (persistent E. coli; 12.5 μg/ml) of the same compound?
The value was 6.21.

And the “Log Kill” value (persistent E. coli; 25 μg/ml)?
Its value is 6.21.
